Literature values as cited in US20180133151A1, “NEBULIZED TIOTROPIUM” (GLENMARK SPECIALTY S.A., priority 2016, published 2018).

Solubility in methanol (methanol): soluble
Solubility in water (water): sparingly soluble
SMILES: C[N+]1(C)C2CC(OC(=O)C(O)(c3cccs3)c3cccs3)CC1C1OC12 (stereo not drawn) [Tiotropium bromide, (1+,2β,4β,7β)-7-[(hydroxydi-2-thienylacetyl)oxy]-9,9-dimethyl-3-oxa-9-azoniatricyclo[3.3.1.02,4]nonane bromide]
